The target in this assay is ClpP1P2 (Mycobacterium tuberculosis (strain ATCC 25618 / H37Rv), UniProt P9WPC3+P9WPC5). As to the kind of experiment: in vitro assay to detect presence of AMC directly proportional to the activity of ClpP1P2. GHDDI collaboration. It is filed as functional.

Structures are written as SMILES. Bounds are passed on as bounds.

Experimental findings from ChEMBL document CHEMBL3988442, “University of Dundee, Small-Polar-MMV Screening Library” (2021) are described below.

Sequence of ClpP1P2 (P9WPC5 whole entry): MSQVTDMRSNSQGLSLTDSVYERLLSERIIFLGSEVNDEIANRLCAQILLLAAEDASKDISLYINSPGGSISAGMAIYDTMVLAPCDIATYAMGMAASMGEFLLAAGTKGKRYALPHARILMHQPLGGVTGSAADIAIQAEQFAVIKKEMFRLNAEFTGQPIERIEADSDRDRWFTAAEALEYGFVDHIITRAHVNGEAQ
Sequence of ClpP1P2 (P9WPC3 whole entry): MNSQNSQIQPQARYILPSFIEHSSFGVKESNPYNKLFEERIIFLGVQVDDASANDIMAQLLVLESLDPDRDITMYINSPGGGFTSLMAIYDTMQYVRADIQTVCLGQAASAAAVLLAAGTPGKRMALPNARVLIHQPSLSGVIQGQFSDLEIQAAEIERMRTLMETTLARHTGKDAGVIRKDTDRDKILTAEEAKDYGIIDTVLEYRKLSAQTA

For orientation: IC50 means the concentration needed to halve the response being measured. For `CCc1nnc(CNC2CCCN(Cc3noc(C4CC4)n3)C2)o1` (configuration not stated), the IC50 was above 100 µM.
The figure for `CN1CCCN(C(=O)c2cc(-c3cc[nH]n3)n3ccccc23)CC1` is above 100 µM; for `N#Cc1cccc(OCCN2CCNC(=O)C2c2cccs2)c1` (configuration not stated) it is above 100 µM; for `N[C@H]1CN(C(=O)c2ccccc2OCCc2ccccc2)C[C@@H]1C1CC1` it is above 100 µM.
The figure for `CC(C)c1nnc2n1CCN(C(=O)Cc1csc(C(C)(C)C)n1)C2` is above 100 µM; for `COc1ncc(NCc2cc(C#N)cs2)cc1C(N)=O` it is above 100 µM; for `CNC(=O)c1cc2c(nc1NCC(C)C)CCN(S(=O)(=O)C1CC1)CC2` it is above 100 µM.
As for `NC(=O)CN1CCC(c2cc(C(F)(F)F)n3ccnc3n2)CC1`, the IC50 was above 100 µM.
As for `COCc1ccccc1CNC(=O)CNc1ccccc1C(C)=O`, the IC50 was above 100 µM.
Regarding `CCn1cnnc1CNC(=O)N1CCN(Cc2ccco2)CC1`, the IC50 is above 100 µM.
For the molecule `O=C1CCCN1Cc1nnc2n1CCCN(C(=O)c1ccco1)C2`, the IC50 was above 100 µM.
Next, `CCOc1ccccc1CC(=O)N1C[C@@H](C(=O)O)[C@H](c2ccncc2)C1`: above 100 µM.
In the case of `NC(=O)CC1CCCN(c2cncc(OCc3ccccc3)n2)C1` (configuration not stated), the IC50 was above 100 µM.
`CCc1n[nH]c(C2CN(CCCS(C)(=O)=O)CCO2)n1` (configuration not stated): the IC50 was above 100 µM.
The figure for `CCCn1[nH]cc/c1=N\C(=O)CN1CCc2c(nc(C3CC3)n2C)C1` is above 100 µM.
Next, `NC(=O)C1CCN(c2nc3nccc(-c4ccncc4)c3c(=O)[nH]2)CC1`: above 100 µM; `CN(C)c1cc(C(F)(F)F)cc(-c2ccc(C(=O)O)cc2)n1`: above 100 µM; `CN(CCN1CCCCC1=O)Cc1cc2cc3c(cc2[nH]c1=O)OCO3`: above 100 µM.
Next, `COCC(C)N1CCc2onc(-c3ccc(F)c(F)c3)c2C1` (configuration not stated): above 100 µM; `CCN1CCCC1CNCc1cc2cc3c(cc2[nH]c1=O)OCCO3` (configuration not stated): above 100 µM.
`Cc1ccc(-c2nc(C3CCN(C(=O)c4cnn(C)c4)CC3)no2)cn1`: the IC50 is above 100 µM.
On to `COc1ccnc(N2CCN(C(=O)Cc3ccsc3)CC2)n1`, for which the IC50 was above 100 µM.
Regarding `Cc1cnn(CC2CN(Cc3nc4ccccc4c(=O)[nH]3)CCO2)c1` (configuration not stated), the IC50 is above 100 µM.
The figure for `COc1cccc(OCCNS(=O)(=O)Cc2ccccc2)c1` is above 100 µM; for `CC(C)N1CCC(c2cc(C(F)(F)F)n3ccnc3n2)CC1` it is above 100 µM; for `Cc1noc(C2CCN(C(=O)CCc3nccs3)CC2)n1` it is above 100 µM.
Next, `Cc1cc(-c2cc(-c3cc(CC(=O)O)cs3)nc(N)c2C#N)oc1C`: above 100 µM.
Take `CN(C)c1ncc(C2Nc3cc(Cl)ccc3C3=NCCCN32)cn1` (configuration not stated): the IC50 is above 100 µM.
Next, `Cc1ccc2nccc(C(=O)N3CCOC(CCN(C)C)C3)c2c1` (configuration not stated): above 100 µM.
Next, `CN(CC(=O)N1CCC(COc2ccccc2)CC1)c1cnccn1`: above 100 µM.
The figure for `O=C(NC1CCC1)c1c2c(N3CCCC3)ncnc2n2ccccc12` is above 100 µM; for `CN(C)c1nc2sc(C(=O)N3CCNC(=O)CC3)cc2s1` it is above 100 µM; for `Cc1nc(C2CCCN2CC(=O)Nc2c(C)n[nH]c2C)no1` (configuration not stated) it is above 100 µM.
As to `O=C(c1cc(-c2ccco2)nc2c(Cl)cccc12)N1CC[C@H]2CNC[C@H]21`, the IC50 was above 100 µM.
Regarding `COCCn1cnc(-c2nc(C(=O)N3CCOCC3)c3ccccn23)c1`, the IC50 was above 100 µM.
Take `N#Cc1ccnc(N2CCC(c3nccn3Cc3cscn3)CC2)c1`: the IC50 was above 100 µM.
Next, `COCCNC(=O)c1nc(-c2cn(C)cn2)n2ccccc12`: above 100 µM.
Take `c1cc(-c2nc(CN3CCc4c(ncn4C4CC4)C3)cs2)cs1`: the IC50 is above 100 µM.
Next, `Cn1c(Cn2ccnc2)nnc1C1CCN(C(=O)c2cccnc2)CC1`: above 100 µM; `Cc1nc(-c2ccsc2)ccc1C(=O)NCCCN1CCOCC1`: above 100 µM; `CNC(=O)c1cc2c(nc1NCC(C)C)CCN(C)CC2`: above 100 µM.
The figure for `O=C1CN(Cc2ccc3ccccc3n2)CCN1C1CCCC1` is above 100 µM.
